US20070167631A1, “Novel herbicides” (priority 2003, published 2007)

Assays:
Type in all cases: in vivo
Solanum = test: Microscreen, post-emergence herbicidal action (Example B3); conditions: 250 g/ha, evaluated after 9 or 13 days, scale of eleven ratings (10=total damage, 0=no action)
Description: (§1) Example B3 Microscreen, Post-Emergence Herbicidal Action Monocotyledonous and dicotyledonous test plants are sown in sterilised standard soil in seed trays each having 96 cells. […] The plants are grown on in the climatic chamber until the test is evaluated after 9 or 13 days. The test is evaluated in accordance with a scale of eleven ratings (10=total damage, 0=no action). Ratings of from 10 to 7 (especially from 10 to 8) indicate very good to good herbicidal action.

Amaranthus [1] = test: as above; conditions: 250 g/ha, evaluated after 9 or 13 days, scale of eleven ratings (10=total damage, 0=no action)
Description: as §1

Nasturtium = test: as above; conditions: 250 g/ha, evaluated after 9 or 13 days, scale of eleven ratings (10=total damage, 0=no action)
Description: as §1

Stellaria [2] = test: as above; conditions: 250 g/ha, evaluated after 9 or 13 days, scale of eleven ratings (10=total damage, 0=no action)
Description: (§2) Example B3 Microscreen, Post-Emergence Herbicidal Action Monocotyledonous and dicotyledonous test plants are sown in sterilised standard soil in seed trays each having 96 cells. After 8 to 9 days' cultivation under controlled conditions in a climatic chamber (cultivation at 17/23° C.; 13 hours' light; 50-60% humidity; after application at 19/24° C.), the plants are treated with an aqueous spray solution of 1000 mg/l of the active ingredient used ([…]; incl. 10% DMSO as solvent). The plants are grown on in the climatic chamber until the test is evaluated after 9 or 13 days. The test is evaluated in accordance with a scale of eleven ratings (10=total damage, 0=no action). Ratings of from 10 to 7 (especially from 10 to 8) indicate very good to good herbicidal action.

Digitaria = test: as above; conditions: 250 g/ha, evaluated after 9 or 13 days, scale of eleven ratings (10=total damage, 0=no action)
Description: as §2

Panicum = test: Post-emergence herbicidal action (Example B2); conditions: 250 g/ha, after about 18 days, rating scale 10=total damage, 0=no action
Excerpt: (§3) Monocotyledonous and dicotyledonous test plants are cultivated in a greenhouse in standard soil in plastic pots and, at the 4- to 6-leaf stage, are sprayed with an aqueous suspension of the test compounds of formula I prepared from a 25% wettable powder (Example F3, b) according to WO 97/34485) or with an emulsion of the test compounds of formula I prepared from a 25% emulsifiable concentrate (Example F1, c) according to WO 97/34485), corresponding to concentrations of 125 and 250 g of active ingredient per hectare (500 litres of water per ha). The test plants are then grown on in the greenhouse under optimum conditions. After a test duration of about 18 days, the test is evaluated in accordance with a scale of eleven ratings (10=total damage, 0=no action). Ratings of from 10 to 7 (especially from 10 to 8) indicate very good to good herbicidal action.

Chenopodium = test: Post-emergence herbicidal action (Example B2); conditions: 250 g/ha, after about 18 days, rating scale 10=total damage, 0=no action
Excerpt: as §3

Amaranthus [3] = test: Post-emergence herbicidal action (Example B2); conditions: 250 g/ha, after about 18 days, rating scale 10=total damage, 0=no action
Excerpt: as §3

Stellaria [4] = test: Post-emergence herbicidal action (Example B2); conditions: 250 g/ha, after about 18 days, rating scale 10=total damage, 0=no action
Excerpt: as §3

Euphorbia = test: Post-emergence herbicidal action (Example B2); conditions: 250 g/ha, after about 18 days, rating scale 10=total damage, 0=no action
Excerpt: as §3

Xanthium = test: Post-emergence herbicidal action (Example B2); conditions: 250 g/ha, after about 18 days, rating scale 10=total damage, 0=no action
Excerpt: as §3

Echinochloa = test: Post-emergence herbicidal action (Example B2); conditions: 250 g/ha, after about 18 days, rating scale 10=total damage, 0=no action
Excerpt: as §3

Row | SMILES | Solanum, herbicidal action rating (Solanum) | Amaranthus, herbicidal action rating (Amaranthus [1]) | Nasturtium, herbicidal action rating (Nasturtium) | Stellaria, herbicidal action rating (Stellaria [2]) | Digitaria, herbicidal action rating (Digitaria) | Post-emergence action: Panicum (Panicum) | Post-emergence action: Chenopodium (Chenopodium) | Post-emergence action: Amaranthus (Amaranthus [3]) | Post-emergence action: Stellaria (Stellaria [4]) | Post-emergence action: Euphorbia (Euphorbia) | Post-emergence action: Xanthium (Xanthium) | Post-emergence action: Echinochloa (Echinochloa)
1 | CN(C)c1nc(C(=O)C2=C(O)CCCC2=O)ccc1C(F)(F)F [Compound 1.059] | 9 | 7 | 9 | 9 | 7 |  |  |  |  |  |  | 
2 | O=C1CCCC(O)=C1C(=O)c1ccc(C(F)(F)F)c(-n2cncn2)n1 [Compound 1.082] | 9 | 6 | 10 | 10 | 3 |  |  |  |  |  |  | 
3 | Cc1cc(-c2nc(C(=O)C3=C(O)C(C)(C)C(=O)C(C)(C)C3=O)ccc2C(F)(F)F)on1 [Compound 2.202] | 10 | 6 | 10 | 10 | 6 |  |  |  |  |  |  | 
4 | CC1CN(c2nc(C(=O)C3=C(O)C(C)(C)C(=O)C(C)(C)C3=O)ccc2C(F)(F)F)CC(C)O1 (stereo not shown) [Compound 2.075] | 10 | 6 | 10 | 9 | 7 |  |  |  |  |  |  | 
5 | COCCNc1nc(C(=O)C2=C(O)C(C)(C)C(=O)C(C)(C)C2=O)ccc1C(F)(F)F [Compound 2.064] | 10 | 8 | 10 | 10 | 9 |  |  |  |  |  |  | 
6 | O=C1CCCC(O)=C1C(=O)c1ccc(C(F)(F)F)c(-n2cccn2)n1 [Compound 1.080] | 9 | 7 | 10 | 9 | 5 |  |  |  |  |  |  | 
7 | Cc1nc(C(=O)C2=C(O)CCCC2=O)ccc1C(F)(F)F [Compound 1.211] | 8 | 8 | 10 | 8 | 5 |  |  |  |  |  |  | 
8 | O=C1CCCC(O)=C1C(=O)c1ccc(C(F)(F)F)c(-c2ccc(C(F)(F)F)cc2)n1 [Compound 1.209] | 9 | 9 | 9 | 9 | 8 |  |  |  |  |  |  | 
9 | CCN(CC)c1nc(C(=O)C2=C(O)C(C)(C)C(=O)C(C)(C)C2=O)ccc1C(F)(F)F [Compound 2.060] | 10 | 9 | 10 | 10 | 9 |  |  |  |  |  |  | 
10 | C=C(OCC)c1nc(C(=O)C2=C(O)CCCC2=O)ccc1C(F)(F)F [Compound 1.189] | 9 |  | 9 | 8 | 7 |  |  |  |  |  |  | 
11 | CN(C(=O)c1ccccc1)c1nc(C(=O)C2=C(O)C(C)(C)C(=O)C(C)(C)C2=O)ccc1C(F)(F)F [Compound 2.090] | 10 | 6 | 10 | 8 | 2 |  |  |  |  |  |  | 
12 | COc1nc(C(=O)C2=C(O)C(C)(C)C(=O)C(C)(C)C2=O)ccc1C(F)(F)F [Compound 2.094] |  |  |  |  |  | 8 | 9 | 3 | 9 | 8 | 7 | 8
13 | CC1=NOC(c2nc(C(=O)C3=C(O)C(C)(C)C(=O)C(C)(C)C3=O)ccc2C(F)(F)F)C1 (stereo not shown) [Compound 2.201] |  |  |  |  |  | 9 | 8 | 9 | 6 | 6 | 8 | 8
14 | CC(C)=NOCCOc1nc(C(=O)C2=C(O)C(C)(C)C(=O)C(C)(C)C2=O)ccc1C(F)(F)F [Compound 2.010] | 9 | 8 | 9 | 8 | 3 |  |  |  |  |  |  | 
15 | CC1(c2nc(C(=O)C3=C(O)CCCC3=O)ccc2C(F)(F)F)OCCO1 [Compound 1.192] | 9 | 8 | 10 | 9 | 7 |  |  |  |  |  |  | 
16 | CC1(C)CC(C)(C)C(O)=C(C(=O)c2ccc(C(F)(F)F)c(N3CCOCC3)n2)C1=O [Compound 3.075] |  |  |  |  |  | 5 | 9 | 2 | 8 | 7 | 8 | 7
17 | COCCOc1nc(C(=O)C2=C(O)CCCC2=O)ccc1C(F)(F)F [Compound 1.003] |  |  |  |  |  | 8 | 10 | 9 | 10 | 6 | 9 | 8
18 | CN(C(=O)c1ccccc1)c1nc(C(=O)C2=C(O)CCCC2=O)ccc1C(F)(F)F [Compound 1.091] | 9 | 8 | 9 | 6 | 2 |  |  |  |  |  |  | 
19 | Cc1cc(-c2nc(C(=O)C3=C(O)CCCC3=O)ccc2C(F)(F)F)on1 [Compound 1.204] | 10 | 10 | 10 | 10 | 8 |  |  |  |  |  |  | 
20 | O=C1CCCC(O)=C1C(=O)c1ccc(OCC(F)(F)F)c(N2CCOCC2)n1 [Compound 1.094] | 10 | 9 | 8 | 7 | 8 |  |  |  |  |  |  | 
21 | N#Cc1nc(C(=O)C2=C(O)CCCC2=O)ccc1C(F)(F)F [Compound 1.212] | 8 | 7 | 8 | 7 | 3 |  |  |  |  |  |  | 
22 | COCCOc1nc(C(=O)C2=C(O)C(C)(C)C(=O)C(C)(C)C2=O)ccc1C(F)(F)F [Compound 2.003] |  |  |  |  |  | 9 | 8 | 8 | 9 | 9 | 8 | 9
23 | CCN(CC)c1nc(C(=O)C2=C(O)CCCC2=O)ccc1C(F)(F)F [Compound 1.060] | 8 | 8 | 9 | 7 | 4 |  |  |  |  |  |  | 
